Legend:
[1] = system: CK2α; experiment: Slug expression after CK2α RNA interference, H1299 cells; format: cell-based, human; settings: Scr and NatD-KD H1299 cells, particularly in NatD-KD cells
Description: Fig. 7 Downregulation of Nt-acetylation of histone H4 facilitates nuclear accumulation of CK2α and its binding to histone H4 in lung cancer cells. a Representative confocal scanning images of CK2α localization in Scr and H1299 cells (left panel). The staining intensity of CK2α was quantified by software ImageJ from NIH (right diagram). Scale bars, 5 μm. […] Equal peptide biotinylated on C terminus is shown by dot blot analysis with streptavidin (middle panel). […] IgG served as a negative control. Results are shown as mean ± s.d. from three independent experiments; two-tailed Student’s t-test, **P < 0.01 compared with the indicated control. g Quantitative real-time PCR analysis of mRNA levels of CK2α and Slug normalized to GAPDH in Scr and NatD-KD H1299 cells in the absence or presence of siRNA to CK2α. NC, siRNA mimics negative control. Data are mean ± s.d. of three independent experiments; Student’s t-test, *P < 0.05, **P < 0.01 compared with the indicated control. h Western blot analysis of indicated proteins from Scr and NatD-KD H1299 cells in the absence or presence of siRNA to CK2α.
siRNA against CK2α and negative control (NC) siRNA were synthesized by RiboBio Co. Ltd (Gaungzhou, China).

[2] = system: H1299 cells; experiment: TGF-β1-induced EMT experiment (morphology), H1299 cells; format: cell-based, human; settings: Scr H1299 cells, TGF-β1
Description: Fig. 4 Silencing NatD suppresses cancer cell EMT by downregulating Slug. a Representative phase contrast images of Scr and NatD-KD H1299 cells treated with TGF-β1. Data are representative of three independent experiments. Scale bar, 100 μm. b Quantitative real-time PCR analysis of mRNA levels of indicated key EMT-related genes in Scr and NatD-KD H1299 cells normalized to GAPDH in the absence or presence of TGF-β1. Results are shown as mean ± s.d. of three independent experiments. Two-tailed Student’s t-test was used. **P < 0.01 or *P < 0.05 compared with the indicated control. c Western blot analysis of indicated protein levels in Scr and NatD-KD H1299 cells in the absence or presence of TGF-β1. GAPDH served as a loading control. Data are representative of three independent experiments. d Immunofluorescence analysis of Scr and NatD-KD H1299 cells in the absence or presence of TGF-β1 stained for E-cadherin and N-cadherin. […] (bottom panels) Cells were counted in at least four random microscope fields (×100 magnification) for the corresponding assays; migration and invasion are expressed as a percentage of control. […] Two-tailed Student’s t-test was used. **P < 0.01 compared with the indicated control. g Quantitative real-time PCR analysis of the mRNA levels of NatD and indicated key EMT-related genes (normalized to GAPDH) in Scr cells, NatD-KD cells, and NatD-KD + Slug cells. […]

| Substance | Slug expression after CK2α knockdown [1] | Slug expression after CK2α knockdown ([1]; listed as knockdown of CK2α by RNA interference) | morphology on TGF-β1 treatment, Scr cells [2] |
| --- | --- | --- | --- |
| CK2α siRNA: siRNA against CK2α: 5′-GAAUUAGAUCCACGUUUCA-3′ (chemistry not given here) | greatly activated | significantly increased | – |
| TGF-β1: TGF-β1 used to induce EMT [reference compound] | – | – | developed a spindle-like appearance and mesenchymal morphology |
